Results on one molecule are retold here after paper PMC3505660, “Application of Collagen-Model Triple-Helical Peptide-Amphiphiles for CD44-Targeted Drug Delivery Systems” (Journal of Drug Delivery, 2012).

Details of series [1]: method as in PMID 8313389, PMID 7865538. The following applies: cited from earlier work. An excerpt: Potential DOX delivery in vivo, however, is quite different than in vitro when one considers circulation times. […] In ...
Series [2] relates to M14#5 human metastatic melanoma cells. As to the kind of experiment: CellTiter-Glo Luminescent Cell Viability Assay (cytotoxicity), M14#5. The format is cell-based. The settings on record: M14#5 cells, [DOX] = 100 μM, 3 h exposure. The source says: (§1) The M14#5 and M14#11 human metastatic melanoma cell lines were generously provided by Dr. Barbara Mueller. The BJ foreskin fibroblasts […] were obtained from the American Type Culture Collection (ATCC) (Cat# CRL-2522). Cell media (Cat# MT10-013-CV) and trypan blue (Cat# ICN1691049) were obtained from Fisher Scientific or CellGro, and all reagents required for cell culture were purchased from Invitrogen. Cells were maintained in DMEM supplemented with 10% fetal bovine serum (Cat# 10437028), 50 units/mL penicillin, and 0.05 mg/mL streptomycin (Cat# 15140163). Cells were cultured with complete medium at 37°C in a humidified atmosphere of 5% CO2 in air. For all experiments cells were harvested from subconfluent (<80%) cultures using a trypsin-EDTA (Cat# 15400054) solution and then resuspended in fresh medium. Preparations of cells with a >90% viability, as determined by trypan blue exclusion, were used.
(§2) The cytotoxicity of all liposomal systems used in this study, as well as free DOX, on the cells was determined using the CellTiter-Glo Luminescent Cell Viability Assay. The M14#5, M14#11, and BJ cells were plated on 96-well tissue cultured treated plates corning at a density of 5 × 10^3 cells per well and incubated for 24 h at 37°C and 5% CO2. The culture medium was then replaced with 100 μL of medium containing various concentrations of each liposomal system or free DOX. […]
Background: In ATP-based viability assays light output follows the ATP content of the culture.

The subject of a further series is BJ foreskin fibroblasts. In words: CellTiter-Glo Luminescent Cell Viability Assay (cytotoxicity), BJ. The series is classed as cell-based, human. The settings on record: BJ cells, [DOX] = 100 μM, 3 h exposure.
Source text: as §1, §2

As for `COc1cccc2c1C(=O)c1c(O)c3c(c(O)c1C2=O)C[C@@](O)(C(=O)CO)C[C@@H]3O[C@H]1C[C@H](N)[C@H](O)[C@H](C)O1` [free DOX, doxorubicin], the “clearance of free DOX relative to DOX encapsulated within PEGylated liposomes” value in series [1] was 450 times faster. Also, the cell viability (in series [2]; in the series on BJ foreskin fibroblasts) was 50–60% throughout.
